Legend:
Adenosine receptor A2a = Adenosine receptor A2a (Homo sapiens, UniProt P29274); experiment: Antagonist activity against human adenosine A2A receptor; type: functional
Homo sapiens = organism: Homo sapiens; experiment: Ratio of Ki for human adenosine A1 receptor to Ki for human adenosine A2A receptor
[1] = Solubility of the compound at pH 7.4; type: physicochemical; conditions: buffer
Rattus norvegicus [2] = experiment: Inhibition of haloperidol -induced catalepsy in rat at 10 mg/kg, po measured after 1 hr; type: functional
Rattus norvegicus [3] = experiment: Inhibition of haloperidol -induced catalepsy in rat at 10 mg/kg, po measured after 4 hrs; type: functional
[4] = Drug uptake in rat brain at 3 mg/kg measured after 6 hrs; type: ADME, organism-based; set-up: dose 3 mg/kg; conditions: read-out: Drug uptake
Rattus norvegicus [5] = experiment: Intrinsic clearance in rat at 3 mg/kg; type: ADME, organism-based; set-up: dose 3 mg/kg; conditions: in vivo
[6] = AUC in rat at 3 mg/kg by LC-MS analysis; type: ADME, organism-based; set-up: dose 3 mg/kg; conditions: plasma

Sequence of Adenosine receptor A2a (P29274 whole entry): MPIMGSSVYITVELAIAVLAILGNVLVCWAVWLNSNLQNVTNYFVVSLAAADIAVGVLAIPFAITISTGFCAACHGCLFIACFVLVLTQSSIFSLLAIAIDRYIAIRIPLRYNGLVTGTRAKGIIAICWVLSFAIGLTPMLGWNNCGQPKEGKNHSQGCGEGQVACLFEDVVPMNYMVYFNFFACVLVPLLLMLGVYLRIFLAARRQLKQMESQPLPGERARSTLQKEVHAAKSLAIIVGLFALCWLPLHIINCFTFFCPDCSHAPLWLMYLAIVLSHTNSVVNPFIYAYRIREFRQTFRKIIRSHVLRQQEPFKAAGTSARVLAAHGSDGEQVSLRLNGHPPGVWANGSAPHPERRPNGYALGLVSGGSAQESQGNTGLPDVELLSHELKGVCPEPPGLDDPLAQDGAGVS

`C=Cn1ncc2c1nc(N)n1c(=O)n(CC3CC3)nc21` showed a Ki (Adenosine receptor A2a) of 27.4 nM, a Ratio Ki (Homo sapiens) of 55 and a solubility ([1]; read-out: solubility) of 175 µM.
With `COCCOc1ccc(N2CCN(CCn3ncc4c3nc(N)n3c(=O)n(Cc5ccccc5)nc43)CC2)c(F)c1` the Ki (Adenosine receptor A2a) was over 1300 nM and the solubility ([1]; read-out: solubility) was 12 µM.
In the case of `Nc1nc2c(cnn2CCN2CCOCC2)c2nn(Cc3ccccc3)c(=O)n12`, the Ki (Adenosine receptor A2a) is reported as 9 nM, the Ratio Ki (Homo sapiens) is reported as 156 and the solubility ([1]; read-out: solubility) is reported as 175 µM.
`Nc1nc2c(c3nn(Cc4ccccc4)c(=O)n13)CCc1ccccc1-2` showed a Ki (Adenosine receptor A2a) of 0.5 nM, a Ratio Ki (Homo sapiens) of 43 and an inhibition in vivo at 10 mg/kg (Rattus norvegicus [2]) of 0%. For the same compound, the inhibition in vivo at 10 mg/kg (Rattus norvegicus [3]) was 18%, the concentration at 6 h [4] was 10 ng/g and the CL (Rattus norvegicus [5]) was 14.7 mL/min/kg.
With `Nc1nc2c(cnn2CCN2CCOCC2)c2nn(Cc3cccc(Cl)c3)c(=O)n12` the Ki (Adenosine receptor A2a) was 14.2 nM, the Ratio Ki (Homo sapiens) was 99 and the solubility ([1]; read-out: solubility) was 25 µM.
With `CN(C)CCn1ncc2c1nc(N)n1c(=O)n(Cc3ccccc3)nc21` the Ki (Adenosine receptor A2a) was over 1500 nM and the solubility ([1]; read-out: solubility) was over 250 µM.
Compound `CN(C)CCn1ncc2c1nc(N)n1c(=O)n(Cc3cccc(Cl)c3)nc21` has a Ki (Adenosine receptor A2a) of 5.2 nM, a Ratio Ki (Homo sapiens) of 269 and an inhibition in vivo at 10 mg/kg (Rattus norvegicus [2]) of 13%. It also gave an inhibition in vivo at 10 mg/kg (Rattus norvegicus [3]) of 20%, an AUC [6] of 0.398 µM·h and a concentration at 6 h [4] of 39 ng/g. The CL (Rattus norvegicus [5]) was 37.3 mL/min/kg and the solubility ([1]; read-out: solubility) was 18 µM.
With `Nc1nc2c(cnn2CCN2CCC(N3CCOCC3)CC2)c2nn(Cc3cccc(Cl)c3)c(=O)n12` the Ki (Adenosine receptor A2a) was 6.7 nM and the Ratio Ki (Homo sapiens) was 224.
For `CS(=O)(=O)N1CCN(CCn2ncc3c2nc(N)n2c(=O)n(Cc4ccccc4)nc32)CC1`, the Ki (Adenosine receptor A2a) was 8.9 nM, the Ratio Ki (Homo sapiens) was 157 and the solubility ([1]; read-out: solubility) was 75 µM.
With `CN(C)CCn1ncc2c1nc(N)n1c(=O)n(CC3CC3)nc21` the Ki (Adenosine receptor A2a) was over 1500 nM and the solubility ([1]; read-out: solubility) was over 250 µM.
With `Nc1nc(-c2ccccc2)cc2nn(Cc3ccccc3)c(=O)n12` the Ki (Adenosine receptor A2a) was 1 nM and the Ratio Ki (Homo sapiens) was 26.
Work on `Nc1nc2c(cnn2CCN2CCOCC2)c2nn(CC3CC3)c(=O)n12` yielded a Ki (Adenosine receptor A2a) of 381 nM, a Ratio Ki (Homo sapiens) of 4 and a solubility ([1]; read-out: solubility) of over 250 µM.
Compound `Nc1nc2c(cnn2CCN2CCN(c3ccc(F)cc3F)CC2)c2nn(Cc3ccccc3)c(=O)n12` has a Ki (Adenosine receptor A2a) of over 1300 nM.
`Nc1nc(-c2ccccc2)cc2nc(-c3ccco3)nn12` gave a Ki (Adenosine receptor A2a) of 7 nM and a Ratio Ki (Homo sapiens) of 3.
In the case of `COCCOc1ccc(N2CCN(CCn3ncc4c3nc(N)n3c(=O)n(Cc5cccc(Cl)c5)nc43)CC2)c(F)c1`, the Ki (Adenosine receptor A2a) is reported as 15.6 nM, the Ratio Ki (Homo sapiens) is reported as 90 and the solubility ([1]; read-out: solubility) is reported as 12 µM.
Work on `CC(C)(C)OC(=O)N1CCN(CCn2ncc3c2nc(N)n2c(=O)n(Cc4ccccc4)nc32)CC1` yielded a Ki (Adenosine receptor A2a) of over 1300 nM and a solubility ([1]; read-out: solubility) of 100 µM.
`Nc1nc(-c2cccnc2)cc2nn(Cc3ccccc3)c(=O)n12` gave a Ki (Adenosine receptor A2a) of 791 nM, a Ratio Ki (Homo sapiens) of 2 and a solubility ([1]; read-out: solubility) of 100 µM.
`COCCOc1ccc(N2CCN(CCn3ncc4c3nc(N)n3nc(-c5ccco5)nc43)CC2)cc1` [PRELADENANT] showed an inhibition in vivo at 10 mg/kg (Rattus norvegicus [2]) of 75%, an inhibition in vivo at 10 mg/kg (Rattus norvegicus [3]) of 80% and a solubility [1] of under 0.01 µg/mL.
Work on `Nc1nc2c(cnn2CCN2CCC3(CC2)OCCO3)c2nn(Cc3ccccc3)c(=O)n12` yielded a Ki (Adenosine receptor A2a) of 8.7 nM, a Ratio Ki (Homo sapiens) of 162 and a solubility ([1]; read-out: solubility) of 75 µM.
Work on `Nc1nc2c(cnn2CCN2CCN(c3cnccn3)CC2)c2nn(Cc3ccccc3)c(=O)n12` yielded a Ki (Adenosine receptor A2a) of 12.7 nM, a Ratio Ki (Homo sapiens) of 110 and a solubility ([1]; read-out: solubility) of 50 µM.
`CS(=O)(=O)N1CCN(CCn2ncc3c2nc(N)n2c(=O)n(Cc4cccc(Cl)c4)nc32)CC1` showed a Ki (Adenosine receptor A2a) of 10.5 nM, a Ratio Ki (Homo sapiens) of 133 and a solubility ([1]; read-out: solubility) of 12 µM.
With `C=Cn1ncc2c1nc(N)n1c(=O)n(Cc3cccc(Cl)c3)nc21` the Ki (Adenosine receptor A2a) was 0.4 nM, the Ratio Ki (Homo sapiens) was 356 and the inhibition in vivo at 10 mg/kg (Rattus norvegicus [2]) was 13%. The inhibition in vivo at 10 mg/kg (Rattus norvegicus [3]) was 15%, the CL (Rattus norvegicus [5]) was 27.7 mL/min/kg and the solubility ([1]; read-out: solubility) was 12 µM.
`Nc1nc(-c2cccc(CO)c2)cc2nn(Cc3ccccc3)c(=O)n12` showed a Ki (Adenosine receptor A2a) of 1700 nM, a Ratio Ki (Homo sapiens) of 1 and a solubility ([1]; read-out: solubility) of 100 µM.
Compound `C=Cn1ncc2c1nc(N)n1c(=O)n(Cc3ccccc3)nc21` has a Ki (Adenosine receptor A2a) of 0.3 nM, a Ratio Ki (Homo sapiens) of 1120 and an inhibition in vivo at 10 mg/kg (Rattus norvegicus [2]) of 0%. It also gave an inhibition in vivo at 10 mg/kg (Rattus norvegicus [3]) of 8%, an AUC [6] of 0.248 µM·h and a concentration at 6 h [4] of 10 ng/g. The CL (Rattus norvegicus [5]) was 24.4 mL/min/kg and the solubility ([1]; read-out: solubility) was 37 µM.
Compound `Nc1nc2c(cnn2CCN2CCC3(CC2)OCCO3)c2nn(Cc3cccc(Cl)c3)c(=O)n12` has a Ki (Adenosine receptor A2a) of 11 nM and a Ratio Ki (Homo sapiens) of 127.
`COc1ccc(-c2cc3nn(Cc4ccccc4)c(=O)n3c(N)n2)cc1` showed a Ki (Adenosine receptor A2a) of 636 nM, a Ratio Ki (Homo sapiens) of 2 and a solubility ([1]; read-out: solubility) of 25 µM.
Compound `CC(C)(C)OC(=O)N1CCN(CCn2ncc3c2nc(N)n2c(=O)n(Cc4cccc(Cl)c4)nc32)CC1` has a Ki (Adenosine receptor A2a) of 556 nM, a Ratio Ki (Homo sapiens) of 2 and a solubility ([1]; read-out: solubility) of 25 µM.
`Nc1nc2c(cnn2CCN2CCN(c3ccc(F)cc3F)CC2)c2nn(Cc3cccc(Cl)c3)c(=O)n12` showed a Ki (Adenosine receptor A2a) of 23.4 nM and a Ratio Ki (Homo sapiens) of 60.
Work on `Nc1nc2c(cnn2CCN2CCN(c3cnccn3)CC2)c2nn(Cc3cccc(Cl)c3)c(=O)n12` yielded a Ki (Adenosine receptor A2a) of 12.9 nM, a Ratio Ki (Homo sapiens) of 109 and a solubility ([1]; read-out: solubility) of 25 µM.
`Nc1nc2c(cnn2CCN2CCC(N3CCOCC3)CC2)c2nn(Cc3ccccc3)c(=O)n12` showed a Ki (Adenosine receptor A2a) of 28.4 nM and a Ratio Ki (Homo sapiens) of 53.
